# Test results reported in patent US20250059198A1, “BRM DEGRADING COMPOUNDS AND ASSOCIATED METHODS OF USE” (Arvinas Operations, Inc., priority 2021, published 2025).
# Biological target: T1, BRM (Homo sapiens, UniProt P51531)
# T1 construct: Western Blot Screen of BRM Degradation in SW1573 Cells; endogenous in cells; host or cells: SW1573 cells
# Assay: BRM degradation (Dmax and DC50) in SW1573 cells, Western blot screen / In-Cell Western screen
# Type: cell-based
# Settings: overnight (18-20 hours) treatment; for Dmax: read-out: Dmax (%)** (% degraded)
# Summary of the method: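 SW1573 cells were treated with compound for 18–20 h (final 0.1% DMSO). BRM was quantified either by Western blot of RIPA lysates or by fixed-cell In-Cell Western (LI-COR, 800/680 nm), each normalised to alpha-tubulin, giving Dmax and DC50.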
# T1 sequence (P51531 whole entry): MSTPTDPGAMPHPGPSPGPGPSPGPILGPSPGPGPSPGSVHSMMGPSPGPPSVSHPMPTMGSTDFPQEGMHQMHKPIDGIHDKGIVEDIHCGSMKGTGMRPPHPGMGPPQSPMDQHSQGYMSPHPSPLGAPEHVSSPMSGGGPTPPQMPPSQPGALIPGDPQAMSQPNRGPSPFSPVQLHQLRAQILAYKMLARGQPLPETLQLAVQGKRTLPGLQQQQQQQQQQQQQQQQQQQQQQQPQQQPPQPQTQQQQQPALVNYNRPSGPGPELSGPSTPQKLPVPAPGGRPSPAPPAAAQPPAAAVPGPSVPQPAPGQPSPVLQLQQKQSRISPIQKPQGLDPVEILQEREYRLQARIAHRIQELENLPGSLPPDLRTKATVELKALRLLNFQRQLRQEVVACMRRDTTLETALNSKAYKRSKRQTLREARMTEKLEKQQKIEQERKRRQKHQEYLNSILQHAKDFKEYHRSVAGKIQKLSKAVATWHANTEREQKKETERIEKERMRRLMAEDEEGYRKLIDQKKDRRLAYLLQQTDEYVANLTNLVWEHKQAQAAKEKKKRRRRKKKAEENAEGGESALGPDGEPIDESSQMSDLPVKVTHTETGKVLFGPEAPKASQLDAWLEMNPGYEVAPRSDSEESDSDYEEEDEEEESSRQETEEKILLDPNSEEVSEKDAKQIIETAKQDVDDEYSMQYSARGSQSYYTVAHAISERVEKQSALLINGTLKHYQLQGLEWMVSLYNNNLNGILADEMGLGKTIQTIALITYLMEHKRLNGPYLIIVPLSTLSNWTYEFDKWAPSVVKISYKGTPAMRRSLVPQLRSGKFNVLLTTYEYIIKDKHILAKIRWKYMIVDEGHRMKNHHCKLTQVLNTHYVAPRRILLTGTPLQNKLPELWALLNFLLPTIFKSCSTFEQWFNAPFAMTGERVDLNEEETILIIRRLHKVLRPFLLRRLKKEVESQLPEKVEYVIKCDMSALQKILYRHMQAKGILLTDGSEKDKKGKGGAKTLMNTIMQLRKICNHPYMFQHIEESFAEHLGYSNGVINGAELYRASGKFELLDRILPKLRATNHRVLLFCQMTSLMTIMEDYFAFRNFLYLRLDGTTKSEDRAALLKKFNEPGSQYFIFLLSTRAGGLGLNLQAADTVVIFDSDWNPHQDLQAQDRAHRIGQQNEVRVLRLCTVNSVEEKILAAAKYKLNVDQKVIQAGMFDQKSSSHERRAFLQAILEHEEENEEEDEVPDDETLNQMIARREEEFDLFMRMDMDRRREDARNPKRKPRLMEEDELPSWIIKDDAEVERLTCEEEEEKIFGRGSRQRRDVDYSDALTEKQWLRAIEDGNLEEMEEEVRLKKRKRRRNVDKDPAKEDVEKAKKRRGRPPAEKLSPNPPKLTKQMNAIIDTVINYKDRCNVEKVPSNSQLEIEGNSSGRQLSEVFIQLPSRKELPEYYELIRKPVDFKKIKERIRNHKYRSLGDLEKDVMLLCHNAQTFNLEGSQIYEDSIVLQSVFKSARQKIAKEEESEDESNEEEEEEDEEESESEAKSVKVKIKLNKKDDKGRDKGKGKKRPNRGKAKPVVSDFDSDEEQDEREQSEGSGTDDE
smiles,measurement,value
"Cc1ncsc1-c1ccc([C@H](C)NC(=O)[C@@H]2C[C@@H](O)CN2C(=O)[C@@H](c2cc(N3CCC(CN4CCC(O[C@H]5C[C@H](N6CCC([C@@H](C)c7cnn(-c8cc(-c9ccccc9O)nnc8N)c7)CC6)C5)CC4)CC3)no2)C(C)C)cc1 [Compound 74, (2S,4R)-4-hydroxy-N-[(1S)-1-[4-(4-methyl-1,3-thiazol-5-yl)phenyl]ethyl]-1-[(2R)-3-methyl-2-{3-[4-({4-[(1r,3r)-3-{4-[(1R)-1-{1-[3-amino-6-(2-hydroxyphenyl)pyridazin-4-yl]-1H-pyrazol-4-yl}ethyl]piperidin-- yl}cyclobutoxy]piperidin-1-yl}methyl)piperidin-1-yl]-1,2-oxazol-5-yl}butanoyl]pyrrolidine-2-carboxamide]",DC50,< 2.5 nM
same,Dmax,> 75%
"Cc1ncsc1-c1ccc([C@H](C)NC(=O)[C@@H]2C[C@@H](O)CN2C(=O)[C@@H](c2cc(N3CCC(O[C@H]4CC[C@H](Oc5cc(N6C7CCC6CN(c6cc(-c8ccccc8O)nnc6N)C7)ccn5)CC4)CC3)no2)C(C)C)cc1 [Compound 136, (2S,4R)-4-hydroxy-N-[(1S)-1-[4-(4-methyl-1,3-thiazol-5-yl)phenyl]ethyl]-1-[(2R)-3-methyl-2-[3-(4-{[(1r,4r)-4-[(4-{3-[3-amino-6-(2-hydroxyphenyl)pyridazin-4-yl]-3,8-diazabicyclo[3.2.1]octan-8-yl}pyridin-2-yl)oxy]cyclohexyl]oxy}piperidin-1-yl)-1,2-oxazol-5-yl]butanoyl]pyrrolidine-2-carboxamide]",DC50,< 2.5 nM
same,Dmax,> 75%
"Cc1ncsc1-c1ccc([C@H](C)NC(=O)[C@@H]2C[C@@H](O)CN2C(=O)[C@@H](c2cc(N3CCC(OC(=O)N4CCC(Oc5cc(N6C7CCC6CN(c6cc(-c8ccccc8O)nnc6N)C7)ccn5)CC4)CC3)no2)C(C)C)cc1 [Compound 128, 1-(5-((R)-1-((2S,4R)-4-hydroxy-2-(((S)-1-(4-(4-methylthiazol-5-yl)phenyl)ethyl)carbamoyl)pyrrolidin-1-yl)-3-methyl-1-oxobutan-2-yl)isoxazol-3-yl)piperidin-4-yl 4-((4-(3-(3-amino-6-(2-hydroxyphenyl)pyridazin-4-yl)-3,8-diazabicyclo[3.2.1]octan-8-yl)pyridin-2-yl)oxy)piperidine-1-carboxylate]",DC50,< 2.5 nM
same,Dmax,> 75%
"Cc1ncsc1-c1ccc([C@H](C)NC(=O)[C@@H]2C[C@@H](O)CN2C(=O)[C@H](c2cc(N3CCC(O[C@H]4CC[C@@H](Oc5cc(N6C7CCC6CN(c6cc(-c8ccccc8O)nnc6N)C7)ccn5)CC4)CC3)no2)C(C)C)cc1 [Compound 79, (2S,4R)-4-hydroxy-N-[(1S)-1-[4-(4-methyl-1,3-thiazol-5-yl)phenyl]ethyl]-1-[(2S)-3-methyl-2-[3-(4-{[(1s,4s)-4-[(4-{3-[3-amino-6-(2-hydroxyphenyl)pyridazin-4-yl]-3,8-diazabicyclo[3.2.1]octan-8-yl}pyridin-2-yl)oxy]cyclohexyl]oxy}piperidin-1-yl)-1,2-oxazol-5-yl]butanoyl]pyrrolidine-2-carboxamide]",DC50,≥ 30 nM
"Cc1ncsc1-c1ccc([C@H](C)NC(=O)[C@@H]2C[C@@H](O)CN2C(=O)[C@@H](c2cc(N3CCC(CN4CCC5(CC4)CC(N4CCOC6(CC(CN7C8CCC7CN(c7cc(-c9ccccc9O)nnc7N)C8)C6)C4)C5)CC3)no2)C(C)C)cc1 [Compound 126, (2S,4R)-1-[(2R)-2-{3-[4-({2-[2-({3-[3-amino-6-(2-hydroxyphenyl)pyridazin-4-yl]-3,8-diazabicyclo[3.2.1]octan-8-yl}methyl)-5-oxa-8-azaspiro[3.5]nonan-8-yl]-7-azaspiro[3.5]nonan-7-yl}methyl)piperidin-1-yl]-1,2-oxazol-5-yl}-3-methylbutanoyl]-4-hydroxy-N-[(1S)-1-[4-(4-methyl-1,3-thiazol-5-yl)phenyl]ethyl]pyrrolidine-2-carboxamide]",DC50,2.5 to 10 nM
same,Dmax,> 75%
"CC(C)[C@@H](C(=O)N1C[C@H](O)C[C@H]1C(=O)N[C@@H](C)c1ccc(C#N)cc1)c1cc(OCCN2CCN(CCOc3cc(N4C5CCC4CN(c4cc(-c6ccccc6O)nnc4N)C5)ccn3)CC2)no1 [Compound 66, (2S,4R)-1-[(2R)-2-{3-[2-(4-{2-[(4-{3-[3-amino-6-(2-hydroxyphenyl)pyridazin-4-yl]-3,8-diazabicyclo[3.2.1]octan-8-yl}pyridin-2-yl)oxy]ethyl}piperazin-1-yl)ethoxy]-1,2-oxazol-5-yl}-3-methylbutanoyl]-N-[(1S)-1-(4-cyanophenyl)ethyl]-4-hydroxypyrrolidine-2-carboxamide]",DC50,2.5 to 10 nM
same,Dmax,> 75%
"CC(C)[C@@H](C(=O)N1C[C@H](O)C[C@H]1C(=O)N[C@@H](C)c1ccc(C#N)cc1)c1cc(N2CCC(CN3CCC(O[C@H]4C[C@H](Oc5cc(N6CC7CCC(C6)N7c6cc(-c7ccccc7O)nnc6N)ccn5)C4)CC3)CC2)no1 [Compound 15, (2S,4R)-N-[(1S)-1-(4-cyanophenyl)ethyl]-4-hydroxy-1-[(2R)-3-methyl-2-{3-[4-({4-[(1r,3r)-3-[(4-{8-[3-amino-6-(2-hydroxyphenyl)pyridazin-4-yl]-3,8-diazabicyclo[3.2.1]octan-3-yl}pyridin-2-yl)oxy]cyclobutoxy]piperidin-1-yl}methyl)piperidin-1-yl]-1,2-oxazol-5-yl}butanoyl]pyrrolidine-2-carboxamide]",DC50,2.5 to 10 nM
same,Dmax,> 75%
"CC(C)[C@@H](C(=O)N1C[C@H](O)C[C@H]1C(=O)N[C@@H](C)c1ccc(C#N)cc1)c1cc(N2CCC(CN3CC[C@H](Oc4cc(N5C6CCC5CN(c5cc(-c7ccccc7O)nnc5N)C6)ccn4)[C@H](F)C3)CC2)no1 [Compound 156, (2S,4R)-1-[(2R)-2-[3-(4-{[(3R,4S)-4-[(4-{3-[3-amino-6-(2-hydroxyphenyl)pyridazin-4-yl]-3,8-diazabicyclo[3.2.1]octan-8-yl}pyridin-2-yl)oxy]-3-fluoropiperidin-1-yl]methyl}piperidin-1-yl)-1,2-oxazol-5-yl]-3-methylbutanoyl]-N-[(1S)-1-(4-cyanophenyl)ethyl]-4-hydroxypyrrolidine-2-carboxamide]",DC50,< 2.5 nM
same,Dmax,> 75%
"Cc1ncsc1-c1ccc([C@H](C)NC(=O)[C@@H]2C[C@@H](O)CN2C(=O)[C@H](c2cc(N3CCC(C4(N5CCC(O[C@H]6C[C@H](Oc7cc(N8C9CCC8CN(c8cc(-c%10ccccc%10O)nnc8N)C9)ccn7)C6)CC5)CC4)CC3)no2)C(C)C)cc1 [Compound 13, (2S,4R)-4-hydroxy-N-[(3S)-3-[4-(4-methyl-3,3-thiazol-5-yl)phenyl]ethyl]-3-[(2S)-3-methyl-2-{3-[4-(3-{4-[(1r,3r)-3-[(4-{3-[3-amino-6-(2-hydroxyphenyl)pyridazin-4-yl]-3,8-diazabicyclo[3.2.3]octan-8-yl}pyridin-2-yl)oxy]cyclobutoxy]piperidin-1-yl}cyclopropyl)piperidin-1-yl]-1,2-oxazol-5-yl}butanoyl]pyrrolidine-2-carboxamide]",DC50,≥ 30 nM
"CC(C)[C@@H](C(=O)N1C[C@H](O)C[C@H]1C(=O)N[C@H](C)c1cc(F)c(C#N)cc1F)c1cc(N2CCC(CN3CCC(O[C@H]4C[C@H](Oc5cc(N6C7CCC6CN(c6cc(-c8ccccc8O)nnc6N)C7)ccn5)C4)CC3)CC2)no1 [Compound 3, (2S,4R)-N-[(1R)-1-(4-cyano-2,5-difluorophenyl)ethyl]-4-hydroxy-1-[(2R)-3-methyl-2-{3-[4-({4-[(1r,3r)-3-[(4-{3-[3-amino-6-(2-hydroxyphenyl)pyridazin-4-yl]-3,8-diazabicyclo[3.2.1]octan-8-yl}pyridin-2-yl)oxy]cyclobutoxy]piperidin-1-yl}methyl)piperidin-1-yl]-1,2-oxazol-5-yl}butanoyl]pyrrolidine-2-carboxamide]",DC50,≥ 30 nM
"Cc1ncsc1-c1ccc([C@H](CC(=O)N2CCC(CN3CCC(O[C@H]4C[C@H](Oc5cc(N6C7CCC6CN(c6cc(-c8ccccc8O)nnc6N)C7)ccn5)C4)CC3)CC2)NC(=O)[C@@H]2C[C@@H](O)CN2C(=O)[C@@H](C(C)C)N2Cc3ccccc3C2=O)cc1 [Compound 37, (2S,4R)-4-hydroxy-N-[(1S)-1-[4-(4-methyl-1,3-thiazol-5-yl)phenyl]-3-oxo-3-[4-({4-[(1r,3r)-3-[(4-{3-[3-amino-6-(2-hydroxyphenyl)pyridazin-4-yl]-3,8-diazabicyclo[3.2.1]octan-8-yl}pyridin-2-yl)oxy]cyclobutoxy]piperidin-1-yl}methyl)piperidin-1-yl]propyl]-1-[(2R)-3-methyl-2-(1-oxo-2,3-dihydro-1H-isoindol-2-yl)butanoyl]pyrrolidine-2-carboxamide]",DC50,≥ 30 nM
"CC(C)[C@@H](C(=O)N1C[C@H](O)C[C@H]1C(=O)N[C@@H](C)c1ccc(C#N)cc1)c1cc(N2CCC(CN3CCC(O[C@H]4C[C@H](Oc5cc(N6C7CCCC6CN(c6cc(-c8ccccc8O)nnc6N)C7)ccn5)C4)CC3)CC2)no1 [Compound 16, (2S,4R)-N-[(1S)-1-(4-cyanophenyl)ethyl]-4-hydroxy-1-[(2R)-3-methyl-2-{3-[4-({4-[(1r,3r)-3-[(4-{3-[3-amino-6-(2-hydroxyphenyl)pyridazin-4-yl]-3,9-diazabicyclo[3.3.1]nonan-9-yl}pyridin-2-yl)oxy]cyclobutoxy]piperidin-1-yl}methyl)piperidin-1-yl]-1,2-oxazol-5-yl}butanoyl]pyrrolidine-2-carboxamide]",DC50,< 2.5 nM
same,Dmax,> 75%
"Cc1ncsc1-c1ccc([C@H](C)NC(=O)[C@@H]2C[C@@H](O)CN2C(=O)[C@@H](c2cc(N3CCC(CN4CCC(O)(C#C[C@H]5C[C@H](Oc6cc(N7C8CCC7CN(c7cc(-c9ccccc9O)nnc7N)C8)ccn6)C5)CC4)CC3)no2)C(C)C)cc1 [Compound 19, (2S,4R)-4-hydroxy-1-[(2R)-2-(3-{4-[(4-hydroxy-4-{2-[(1r,3r)-3-[(4-{3-[3-amino-6-(2-hydroxyphenyl)pyridazin-4-yl]-3,8-diazabicyclo[3.2.1]octan-8-yl}pyridin-2-yl)oxy]cyclobutyl]ethynyl}piperidin-1-yl)methyl]piperidin-1-yl}-1,2-oxazol-5-yl)-3-methylbutanoyl]-N-[(1S)-1-[4-(4-methyl-1,3-thiazol-5-yl)phenyl]ethyl]pyrrolidine-2-carboxamide]",DC50,< 2.5 nM
same,Dmax,> 75%
